Assay results as given in patent publication US20250345356A1, “TIRAPAZAMINE COMPOSITIONS AND METHODS” (priority 2024, published 2025).
Like-named read-outs stand apart in the source and are kept apart here.

Experiments:
[1] = system: advanced NSCLC; settings: cited from earlier work
[2] = PK of TPZ and metabolites SR4317 and SR4330 after intra-arterial injection of TPZ in NS vs HPβCD; assay type: in vivo, Sprague Dawley rats; settings: for AUClast, HβC Mean / Cmax, HβC Mean / AUClast, Normal Saline (NS) Mean / Cmax, Normal Saline (NS) Mean: rats
Excerpt: Purpose of the study: To evaluate the pharmacokinetics (PK) of tirapazamine and its metabolites, SR4317 and SR4330 [Graham, M A et al. Cancer Chemother. Pharmacol. (1997) 40 (1): 1-10], after injection of TPZ in 1% HPβCD or normal saline.
Animals: Twenty-four female (12) and male (12) Sprague Daley (SD) rats, weight 200-250 grams, respectively, with femoral artery and jugular vein cannulated, were purchased from, Taconic. Two extra cannulated male and female rates were used to test tolerability with buffer. Each rate was housed individually to safeguard the vessel catheters.
The study parameters are shown in Table 22. began after a 3-day period of adjustment to the animal facility. The study compound was injected into the femoral artery catheter (FAC at 2-1 m (by slow injection. Blood samples were collected from a jugular vein catheter (JVC) at 6 timepoints: 0 (baseline) and after drug administration at 15 and 30 minutes, 1 hr, 2 hr, and 6 hours. The volume of blood sample for each time point was approximately 0.6 mL. Plasma samples were collected in tubes containing sodium heparin as anti-coagulant. Plasma was prepared and frozen in −80° C. Rats were euthanized after the last blood sample (euthanized after the 6 hr time point).
Male rats were around 250 grams, and female 200 grams. There were 8 groups with Groups 1-4 females, and […]. Each group had 3 rats. TPZ was dissolved in NS or […] at a concentration 0.7 mg/mL.
The concentrations of TPZ and its metabolites, SR4317 and SR4330, in rat plasma samples were analyzed using liquid chromatography Tandem Mass Spectrometry (LC-MS) by Primera Analytical Solutions Corp (Princeton, NJ). Standards for TPZ, SR4317 and SR4330 were provided by Teclison, Inc. (Princeton, NJ) for calibration. All analytical data were reviewed for completeness and accuracy. Data transferred manually was cross-checked against source data which was part of the study raw data.
LC-MS analysis was conducted with Sciex 4000 with a Shimadzu LC-30 System.
The concentration data was imported and plotted with SAS program as ADPC (Analysis Dataset of Pharmacokinetics Concentrations) dataset. PK parameters calculated based on ADPC were output as an Analysis Dataset of Pharmacokinetics Parameters (ADPP) dataset.
PK parameters of each profile were calculated by non-compartmental analysis using SAS programming. BLQ (Below the Limit of Quantification) observation prior to the first measurable concentration was imputed as zero, otherwise, the BLQ observation was left as missing.
An apparent first-order terminal elimination rate constant (Kel) was calculated by linear least-squares regression analysis using at least three points (excluding Cmax) in the terminal log-linear phase. Uniform weighting was adopted when performing regression analysis. Linear-up/log-down approach was utilized to calculate AUC.
A linear model was built to evaluate the effect of solution on the PK parameters, adjusting for sex and dose. The model included sex (F, M), solution type (Normal saline, Hydroxypropyl-beta-Cyclodextrin “HP-beta-CD”), and dose (mg) as fixed effects. Sex and solution type are categorical variables (meaning a variable based on a qualitative, not numerical, property) and dose is a continuous variable (meaning a random variable that can take on an infinite number of values within a certain interval that represents measurable data). Separate models were built for each combination of analyte (TPZ, SR4317 and SR4330) and PK parameters (AUClast and Cmax) using the BY statement, which divides the observations from an input data set into groups for processing.
The difference of lease squared means between solution types was estimated. 95% confidence intervals (CI), and p-values for the difference were presented. The significance level (alpha) was set at 0.05, meaning that a p-value less than 0.05 was considered statistically significant.

[3] = cited from earlier work
[4] = system: HCC; settings: cited from earlier work
[5] = cited from earlier work; remark: listed apart in the source
[6] = system: unresectable intermediate stage HCC; settings: cited from earlier work
[7] = intra-arterial TPZ 3.33 mg/kg in HPβCD
[8] = intra-arterial TPZ 3.33 mg/kg in NS
[9] = intra-arterial TPZ 7 mg/kg in HPβCD
[10] = intra-arterial TPZ 7 mg/kg in NS

Nc1n[n+]([O-])c2ccccc2[n+]1[O-] [tirapazamine, 3-amino-1,2,4-benotriazine-1,4-di-N-oxide]
removed from treatment as a result of toxicity ([1]; arm 1 (with tirapazamine 260-330 mg/m^2) vs arm 2): 26%
patients who developed ≥grade 3 febrile neutropenia ([1]; arm 1 vs arm 2): Twenty
survival compared with paclitaxel and carboplatin alone ([1]; tirapazamine added to paclitaxel and carboplatin): does not result in improved survival
AUClast HβC/NS Ratio (%) ([2]; 3.33 mg/kg): 86.94%
Cmax HβC/NS Ratio (%) ([2]; 3.33 mg/kg): 91.15%
dose proportionality of plasma concentrations ([2]; 3.33 mg/kg vs. 7 mg/kg in either solvent): dose proportional effect was observed
AUClast HβC/NS Ratio (%) ([2]; 7 mg/kg): 94.02%
Cmax HβC/NS Ratio (%) ([2]; 7 mg/kg): 101.02%
plasma concentrations, TPZ in NS versus HPβCD ([2]; FIG. 23): no difference
AUClast, HβC Mean [2, 7]: 781.49 ng·h/mL
Cmax, HβC Mean [2, 7]: 1476.67 ng/mL
AUClast, Normal Saline (NS) Mean [2, 8]: 898.92 ng·h/mL
Cmax, Normal Saline (NS) Mean [2, 8]: 1620.00 ng/mL
AUClast, HβC Mean [2, 9]: 2423.84 ng·h/mL
Cmax, HβC Mean [2, 9]: 4468.33 ng/mL
AUClast, Normal Saline (NS) Mean [2, 10]: 2578.02 ng·h/mL
Cmax, Normal Saline (NS) Mean [2, 10]: 4423.33 ng/mL
necrosis of the left lobe of the liver (histopathology) ([3]; 3 mg/kg and 6 mg/kg i.v. with transient left HAL, Day 1): 1%
survival after 1 and 7 days ([3]; 3 mg/kg or 6 mg/kg with left HAL): survived
serum alanine transaminase (ALT) level ([3]; Day 1, dose-dependent): elevated on Day 1
potentially safe doses combined with transient left HAL ([3]; i.v. infusion): ≤ 6 mg/kg
CR or partial response (PR), objective response rate (ORR) ([4]; 17 patients): 64.7%
patients who achieved CR as the best target tumor lesion response ([4]; 17 patients): 47.1%
median Time to Progression ([4]; mRECIST criteria): not reached
tumor responses ([5]; 36-450 mg/m^2 i.v.): no tumor responses were seen
AUC of tirapazamine at which ototoxicity was not observed ([5]; human, in vivo, 330 mg/m2): ≤ 1252 µg·min/mL
Maximally Tolerated Dose (MTD) ([5]; human, in vivo, iv): 390 mg/m^2
dose-limiting toxicities ([5]; human, in vivo, iv): reversible deafness and tinnitus
duration of cramps ([5]; human, in vivo, iv): 1 to 14 days
mean Vdss ([5]; human, in vivo, iv): 39 ± 12.5 L
mean clearance (±SD) ([5]; human, in vivo, iv): 624.2 ± 157 mL/min
onset of muscle cramps after the start of infusion ([5]; human, in vivo, iv): 2.4 to 24 h
increase in AUC(0-inf) ([5]; human, in vivo): ~19 fold
median duration of target lesion response ([6]; 15 patients who achieved CR by mRECIST): not reached
median duration of target lesion response ([6]; 21 patients who achieved CR or PR): not reached
treatment emergent AE grade 3 or higher: ALT increased ([6]; 27 patients): 11.1%
treatment emergent AE grade 3 or higher: AST increased ([6]; 27 patients): 14.8%
treatment emergent AE grade 3 or higher: hypertension ([6]; 27 patients): 25.9%
treatment-related AE: ALT increased ([6]; 27 patients): 7.4%
treatment-related AE: AST increased ([6]; 27 patients): 7.4%
treatment-related AE: bradycardia ([6]; 27 patients): 7.4%
treatment-related AE: fatigue ([6]; 27 patients): 7.4%
treatment-related AE: hypertension ([6]; 27 patients): 11.1%
CR rate by lesions ([6]; 46 target lesions): 65.2%
ORR (CR+PR) by lesions ([6]; 46 target lesions): 78.3%
local recurrence in the embolized territory ([6]; CR patients): 13.3%
local recurrence in the embolized territory ([6]; CR+PR patients): 28.6%
dose-limiting toxicity (DLT) ([6]; all cohorts, with TAE): no dose-limiting toxicity
patients who achieved CR in target lesions ([6]; mRECIST, 25 evaluable patients): 60.0%
patients who achieved CR+PR ([6]; mRECIST, 25 evaluable patients): 84.0%
Complete Response (CR) rate ([6]; two phase I studies, tirapazamine with TAE): 50-60%
MTD of tirapazamine in combination with TAE ([6]; up to 20 mg/m^2 I.A.): not established
